Among the test systems are NCI-H226 lung; COLO 205 colon; ACHN renal; RPMI-8226 leukemia; KM12 colon; MALME-3M melanoma; SF-539 CNS; MDA-MB-435; SK-OV-3 ovarian; HT29 colon.
Holding throughout (experiment): NCI anticancer screen, dose series, 48 h

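Test compounds were applied to cells in 96-well plates for 48 hours at 5 doses. Here, GI50 denotes the concentration required for 50% inhibition of growth. TGI marks complete inhibition of growth.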

Regarding `Cn1nccc1Nc1nccc(-c2ccn([C@H](CO)c3ccc(Cl)c(F)c3)c(=O)c2)n1`, the GI50 is 34.8 µM in the experiment with NCI-H226 lung; 0.0649 µM in the experiment on COLO 205 colon; 25 µM in the experiment with ACHN renal; 21.6 µM in the experiment on RPMI-8226 leukemia; 18.8 µM in the experiment with KM12 colon; 0.0289 µM with MALME-3M melanoma. Moreover, the GI50 with SF-539 CNS is 2.24 µM; in the experiment on MDA-MB-435 it was 3.16 µM; in the experiment on SK-OV-3 ovarian it was 47.6 µM; in the experiment on HT29 colon, 0.17 µM. For the same compound, the TGI is more than 100 µM in the experiment on NCI-H226 lung; 16.7 µM in the experiment on COLO 205 colon; more than 100 µM with ACHN renal; 59.3 µM in the experiment with RPMI-8226 leukemia; more than 100 µM in the experiment on KM12 colon; 0.307 µM in the experiment with MALME-3M melanoma. The TGI with SF-539 CNS is 6.91 µM; in the experiment with MDA-MB-435 it was more than 100 µM; with SK-OV-3 ovarian, more than 100 µM; in the experiment with HT29 colon, more than 100 µM.

Regarding `CN(C)CCCC1(c2ccc(F)cc2)OCc2cc(-c3cccc4[nH]ccc34)ccc21` (stereo not given), the GI50 in the experiment on NCI-H226 lung was 1.76 µM; in the experiment on COLO 205 colon, 1.47 µM; in the experiment on ACHN renal, 1.68 µM; in the experiment on RPMI-8226 leukemia, 1.77 µM; in the experiment on KM12 colon it was 1.74 µM; in the experiment on MALME-3M melanoma, 1.56 µM. Also, the GI50 is 1.67 µM in the experiment on SF-539 CNS, 1.76 µM in the experiment on MDA-MB-435, 1.75 µM with SK-OV-3 ovarian and 1.6 µM with HT29 colon. Moreover, the TGI with NCI-H226 lung came to 3.52 µM; with COLO 205 colon, 2.88 µM; in the experiment on ACHN renal, 3.04 µM; in the experiment with RPMI-8226 leukemia it was 4.12 µM; in the experiment with KM12 colon, 3.27 µM; with MALME-3M melanoma, 3.01 µM. In addition, the TGI in the experiment on SF-539 CNS stood at 3.12 µM; in the experiment with MDA-MB-435, 3.31 µM; in the experiment on SK-OV-3 ovarian it was 3.25 µM; with HT29 colon, 3.39 µM.

`COc1cc2c(N3CCN(C(=O)Nc4ccc(OC(C)C)cc4)CC3)ncnc2cc1OCCCN1CCCCC1`: the GI50 is 15.2 µM in the experiment with NCI-H226 lung; 11.9 µM with COLO 205 colon; 20.8 µM in the experiment with ACHN renal; 11.7 µM in the experiment on RPMI-8226 leukemia; 3.22 µM in the experiment on KM12 colon; 14.3 µM with MALME-3M melanoma. The GI50 was 6.43 µM in the experiment with SF-539 CNS, 13.8 µM in the experiment on MDA-MB-435, 18.4 µM in the experiment on SK-OV-3 ovarian and 6.59 µM in the experiment on HT29 colon. In addition, the TGI in the experiment on NCI-H226 lung was 45.3 µM; in the experiment on COLO 205 colon, 26.5 µM; with ACHN renal, 55.6 µM; in the experiment on RPMI-8226 leukemia it was more than 54.1 µM; with KM12 colon, 29.8 µM; in the experiment with MALME-3M melanoma it was 29 µM. Also, the TGI was 22.3 µM with SF-539 CNS, 29.9 µM in the experiment on MDA-MB-435, 39.9 µM with SK-OV-3 ovarian and 26.4 µM in the experiment on HT29 colon.

Turning to `CC1(C)OC[C@@H]([C@@]2(CO[Si](c3ccccc3)(c3ccccc3)C(C)(C)C)CC=CC(=O)O2)O1`, the GI50 in the experiment on NCI-H226 lung is 5.54 µM; in the experiment with COLO 205 colon, 8.69 µM; with ACHN renal, 11.4 µM; in the experiment on RPMI-8226 leukemia, 3.55 µM; with KM12 colon, 4.99 µM; with MALME-3M melanoma, 2.42 µM. In addition, the GI50 in the experiment on SF-539 CNS is 3.68 µM; with MDA-MB-435 it was 4.98 µM; with SK-OV-3 ovarian, 33 µM; in the experiment on HT29 colon it was 7.97 µM. Further, the TGI with NCI-H226 lung is 24.1 µM; in the experiment on COLO 205 colon it was more than 100 µM; in the experiment with ACHN renal, 36.6 µM; in the experiment on RPMI-8226 leukemia, 71.9 µM; in the experiment on KM12 colon, 56.3 µM; in the experiment with MALME-3M melanoma, 8.48 µM. Further, the TGI in the experiment on SF-539 CNS is 9.82 µM; in the experiment on MDA-MB-435, 31.2 µM; in the experiment with SK-OV-3 ovarian it was more than 100 µM; in the experiment on HT29 colon, more than 100 µM.

Regarding `Nc1ncnc2c1N=C(c1ccc3c(c1)OCO3)CC(c1ccc(Cl)cc1)N2` (stereo not given), the GI50 in the experiment on NCI-H226 lung is 44.8 µM; in the experiment with COLO 205 colon, 15 µM; in the experiment with ACHN renal it was 8.25 µM; in the experiment with RPMI-8226 leukemia, 1.5 µM; in the experiment with KM12 colon, 2.03 µM; in the experiment with MALME-3M melanoma it was 89.1 µM. Moreover, the GI50 in the experiment with SF-539 CNS is 26.2 µM; in the experiment with MDA-MB-435, 56.3 µM; in the experiment on SK-OV-3 ovarian it was 92.6 µM; with HT29 colon it was 17.2 µM. Moreover, the TGI in the experiment on NCI-H226 lung was more than 100 µM; in the experiment with COLO 205 colon it was more than 100 µM; in the experiment with ACHN renal, more than 100 µM; in the experiment with RPMI-8226 leukemia, 8.33 µM; in the experiment on KM12 colon it was 30.7 µM; in the experiment on MALME-3M melanoma it was more than 100 µM. Further, the TGI in the experiment with SF-539 CNS, with MDA-MB-435, in the experiment on SK-OV-3 ovarian and in the experiment with HT29 colon was more than 100 µM throughout.

Regarding `O=C1/C(=C\c2ccccc2)CN(C(=O)CCN2CCCCC2)C/C1=C/c1ccccc1`, the TGI in the experiment on NCI-H226 lung came out at 16.5 µM; with COLO 205 colon it was 3.83 µM; in the experiment with ACHN renal it was 4.29 µM; in the experiment with RPMI-8226 leukemia, 0.244 µM; with KM12 colon, 1.24 µM; with MALME-3M melanoma, 5.44 µM. Besides, the TGI was determined as 5.52 µM in the experiment on SF-539 CNS, 6.37 µM in the experiment on MDA-MB-435, 9.77 µM in the experiment with SK-OV-3 ovarian and 2.03 µM with HT29 colon.

In the case of `c1ccc(-c2[nH]ncc2-c2ccnc(-c3ccc(OCCn4ccnc4)cc3)c2)nc1`, the GI50 in the experiment on NCI-H226 lung is more than 18.7 µM; with COLO 205 colon, more than 25 µM; with ACHN renal, more than 25 µM; in the experiment with RPMI-8226 leukemia it was more than 20.6 µM; in the experiment with KM12 colon it was 13.7 µM; in the experiment on MALME-3M melanoma, 12.2 µM. Besides, the GI50 in the experiment with SF-539 CNS was more than 25 µM; in the experiment with MDA-MB-435, 24.5 µM; in the experiment on SK-OV-3 ovarian it was more than 25 µM; in the experiment on HT29 colon it was more than 25 µM. The TGI in the experiment with NCI-H226 lung, in the experiment with COLO 205 colon, in the experiment on ACHN renal, in the experiment on RPMI-8226 leukemia, in the experiment on KM12 colon and in the experiment on MALME-3M melanoma was more than 25 µM throughout. Moreover, the TGI in the experiment with SF-539 CNS, in the experiment with MDA-MB-435, in the experiment with SK-OV-3 ovarian and in the experiment on HT29 colon was more than 25 µM each time.

On to `CC1=C(C(=O)Nc2ccccc2)C(c2ccc(N(C)C)cc2)C(C(=O)Nc2ccccc2)=C(C)N1`, for which the TGI in the experiment with NCI-H226 lung was more than 100 µM; in the experiment on COLO 205 colon it was 17.3 µM; with ACHN renal it was more than 73.6 µM; in the experiment on RPMI-8226 leukemia, 72.9 µM; in the experiment with KM12 colon, 27.2 µM; with MALME-3M melanoma it was 39.6 µM. The TGI in the experiment on SF-539 CNS was more than 100 µM; in the experiment on MDA-MB-435, more than 26.7 µM; in the experiment with SK-OV-3 ovarian, more than 100 µM; with HT29 colon, more than 75.8 µM.
